Data on eleven molecules can be found in US4816482A, “Radioprotective agents having an amino-thioalkyl structure” (priority 1983, dated 1989).

Entries after “also recorded” stand apart in the source; their conditions may differ. Where a name gives a salt, the structure may show the parent alone. Read-outs that look alike come from different tables or passages of the source.

For data set [1], the system named is mice. In words: Acute toxicity (LD50), i.p. Conditions: for toxicity (in words): mouse, in vivo. It counts as in vivo.
The subject of data set [2] is mice. In words: Radioprotective activity: survival at the 30th day after irradiation. It counts as in vivo. Conditions: for radioprotective activity (in words): mouse, in vivo; for responders at 600 mg/kg: 600 mg/kg i.p. The procedure:
This study of radioprotective activity was carried out according to a technique described by M. Fatome at al., Eur. J. Med. Chem. 1977, 12, (1), 93. […] This dose is equal to 950 Rad.
More complete studies are recorded in Table II.

Data set [3] in a line: Acute toxicity (LD50), i.p. It is filed as in vivo, mice. To be noted: mouse, in vivo, ip.
In data set [4] the test system is mice. To be noted: cited from earlier work.
Data set [5] relates to bone marrow. In words: FRD on bone marrow. To be noted: in vivo.
The subject of data set [6] is EMT 6 tumours. Kind of data set: Gain factor (bone marrow FRD/tumour FRD) on EMT 6 tumours. It counts as in vivo. To be noted: 5×10^-1 survival level.
In data set [7] the test system is normal tissues / tumours. In words: Selectivity of protection: normal tissues versus tumours. Conditions: EMT6 and HT19 tumours, except if necrotised.
Data set [8] in a line: Chemical stability. It is filed as physicochemical. To be noted: I 102 compared with WR 2721.
Data set [9] deals with normal tissues / tumours. Conditions: literature knowledge; cited from earlier work.
The conditions of data set [10]: cited from earlier work.

Regarding `Br.Br.NCC(=O)NCCSSCCNC(=O)CN` [Example 16, N,N'-[…] DIHYDROBROMIDE], the median lethal dose (LD50) – broadly, the dose expected to kill half of the subjects tested – in [1] (Table I) was 1,500 mg/kg. In addition, the responders at 750 mg/kg in data set [2] (Mus musculus, light or radiation study, ip, 720 h, read-out: % survival at the 30th day, Table I, 750 mg/kg i.p., 15' before irradiation at 900 or 950 Rad) worked out at 100%.
As to `CC(=O)SCCNC(=O)[C@H](C)N.O=C(O)C(F)(F)F` [Example 22], the LD50 in data set [3] (Table II) was 1250 mg/kg; in data set [1] (Table I) it was 1,250 mg/kg. In data set [1], the “toxicity (in words)” value was “low toxicity”. The “radioprotective activity (in words)” value in data set [2] was “good radioprotection”.
With `CC(=O)OC(CNC(=O)CN)CSC(C)=O` (stereo not drawn) [Example 32, TRIFLUOROACETATE], the 50% lethal dose (LD50) is greater than 1500 mg/kg in data set [3], 1500 mg/kg in [3] (Table I) and 1500 mg/kg in [3] (Table II). For the same molecule, the “toxicity (in words)” value in [1] is “low toxicity”. For the same molecule, the “survival at 30 days” value in [2] (250 mg/kg, 900 Rad) was 70%; in data set [2] (1,000 mg/kg, 1,100 Rad), 80%. Also, the responders at 1000 mg/kg in data set [2] (Mus musculus, light or radiation study, ip, 720 h, Table I, 1,000 mg/kg i.p., 15' before irradiation at 900 or 950 Rad, read-out: % survival at the 30th day) was found to be 100%; in data set [2] (Mus musculus, light or radiation study, ip, 720 h, Table II, 1,000 mg/kg i.p., 15' before irradiation, 900 Rad, read-out: % survival at 30 days), 100%; in data set [2] (Mus musculus, light or radiation study, ip, 720 h, Table II, dose not printed (1,000 mg/kg in text), 15' before irradiation, 1,100 Rad, read-out: % survival at 30 days) it was 80%. Moreover, the responders at 250 mg/kg in [2] (Mus musculus, light or radiation study, ip, 720 h, Table II, dose not printed (250 mg/kg in text), 15' before irradiation, 900 Rad, read-out: % survival at 30 days) was 70%.
Regarding `CC(=O)NCCSC(=O)CN.O=C(O)C(F)(F)F` [Example 34], the 50% lethal dose (LD50) in [3] (Table II) is 1000 mg/kg; in data set [1] (Table I) it was 1,000 mg/kg. Also, the “radioprotective activity (in words)” value in data set [2] is “slight radioprotective action”.
In the case of `C[C@H](N)C(=O)NCCSSCCNC(=O)[C@H](C)N.O=C(O)C(F)(F)F.O=C(O)C(F)(F)F` [Example 45, N,N'-[…] DI(TRIFLUOROACETATE)], the LD50 in [3] (Table I) and in data set [3] (Table II) was 1200 mg/kg in each case. The “toxicity (in words)” value in [1] is on record as “low toxicity”. For the same molecule, the responders at 600 mg/kg amounted to 50% in [2] (Mus musculus, ip, 720 h, read-out: % survival at 30 days, Table II, 4th entry, time and Rad not given); 50% in data set [2] (Mus musculus, light or radiation study, ip, 720 h, read-out: % survival at 30 days, Table II, 2 (hours, cut off) before irradiation, 900 Rad); 100% in data set [2] (Mus musculus, light or radiation study, ip, 720 h, read-out: % survival at 30 days, Table II, 15' before irradiation, 900 Rad); 100% in [2] (Mus musculus, light or radiation study, ip, 720 h, read-out: % survival at the 30th day, Table I, 15' before irradiation at 900 or 950 Rad). Further, the responders at 150 mg/kg in data set [2] (Mus musculus, light or radiation study, ip, 720 h, read-out: % survival at 30 days, Table II, 150 mg/kg i.p., 15' before irradiation, 900 Rad) is 20%. In [2], the “radioprotective activity (in words)” value is recorded as “good radioprotection”.
Consider `CC(C)(N)CSS(=O)(=O)O` [H2 N--(C(CH3)2 --CH2 --S--SO3 H], for which, in data set [4] (600 mg/kg, J. R. Piper et al., J. Med. Chem. 1966), the “protection (in words)” value is “good protection”.
`CC(=O)SCCNC(=O)CN` [I 102, N-glycyl-S-acetylcysteamine]: the LD50 in data set [3] is greater than 1500 mg/kg. Besides, the “FRD on bone marrow” value in data set [5] turned out to be 1.4. For the same molecule, the “gain factor (bone marrow FRD/tumour FRD)” value in data set [6] was 1.2. Moreover, the “protection of tumours (in words)” value in data set [7] is on record as “does not protect tumours (or protects them to only a small extent)”.
In turn, `NCCCNCCSP(=O)(O)O` [WR 2721] yielded an LD50 in data set [1] of 950 mg/kg. The “FRD on bone marrow” value in [5] is given as 2.7. Besides, the “gain factor (bone marrow FRD/tumour FRD)” value in data set [6] is given as 1.2. Further, in data set [8], the “chemical stability (in words)” value is recorded as “unstable; also recorded: not very stable”. The “selectivity of protection (in words)” value in data set [9] was “protecting normal tissues against radiation-induced damage, while allowing solid tumors to bear alone the effect of the radiation; also recorded: concentrates selectively in healthy cells and not in cancer cells; also recorded: concentrating selectively in normal tissues (and not in cancer cells); also recorded: selectively protects normal tissues against radiation-induced damage”. Besides, the “solubility in water (in words)” value in [10] is “high solubility in water”.
Consider `NCC(O)CSP(=O)(O)O` (stereo not drawn) [WR 77913], for which the “survival at 30 days” value in data set [4] (mice, 400 mg/kg (i.p.) 30 minutes before irradiation of 950, 970 Rad) is 100%.
Take `NCCS` [cysteamine, β-mercaptoethylamine]: the “selectivity of protection (in words)” value in [9] is “non-selective protection of the cells”.
In the case of `N[C@@H](CS)C(=O)O` [cysteine], the “selectivity of protection (in words)” value in data set [9] was “non-selective protection of the cells”.
